Experimental data: ChEMBL document CHEMBL1122859, “Novel vasopressin analogues that help define a minimum effective antagonist pharmacophore” (J Med Chem, 1985)
Numbered stars: 1 amine (or outer) side, 2 acyl side, 3 side chain; on linkers, the order of the positions; unused ones are H or OH. Bridge positions count the residues as written; N and C are the ends. Square brackets hold non-standard residues; d marks the D form. Peptide text beside a SMILES is read from it. * marks the point of attachment. X1 = O=C(CC1(S[*:2])CCCCC1)[*:1]; NH(CH2)5NH2 = NCCCCCN*

Key:
[1] = target: T1, Vasopressin V2 receptor (Sus scrofa, UniProt P32307); assay: Tested for inhibition of [3H]LVP binding to vasopressin receptor in medullary membranes of pig kidney.; format: cell membranes
T1 sequence (P32307 whole entry): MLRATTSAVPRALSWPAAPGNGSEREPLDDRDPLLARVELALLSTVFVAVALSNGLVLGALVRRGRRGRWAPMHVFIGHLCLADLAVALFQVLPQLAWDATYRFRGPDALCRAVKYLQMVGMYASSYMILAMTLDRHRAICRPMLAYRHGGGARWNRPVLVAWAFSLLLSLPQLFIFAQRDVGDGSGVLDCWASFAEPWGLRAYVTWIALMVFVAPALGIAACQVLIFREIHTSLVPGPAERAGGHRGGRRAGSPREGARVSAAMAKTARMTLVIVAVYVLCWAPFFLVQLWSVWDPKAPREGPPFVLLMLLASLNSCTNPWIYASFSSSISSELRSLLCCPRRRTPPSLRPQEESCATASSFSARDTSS

[2] = target: T1, Vasopressin V2 receptor; assay: Tested for inhibition of vasopressin-stimulated adenylate cyclase of medullary membranes of pig kidney.
[3] = tested on: Rattus norvegicus; assay: Dose required to lower urine osmolality to 300 mOsm/kg in rat.; format: functional

Row | Ki [1] [nM] | Ki [2] [nM] | SMILES | ED300 [3] [mg/kg]
1 | 37 | 9.4 | CCOc1ccc(C[C@H]2NC(=O)CC3(CCCCC3)SSC[C@@H](C(=O)N3CCC[C@H]3C(=O)N[C@@H](CCCCN)C(N)=O)NC(=O)[C@H](CC(N)=O)NC(=O)[C@H](C(C)C)NC(=O)[C@H](Cc3ccccc3)NC2=O)cc1 [listing 1 of 2 here] | 
2 |  |  | CCOc1ccc(C[C@H]2NC(=O)CC3(CCCCC3)SSC[C@@H](C(=O)N3CCC[C@H]3C(=O)N[C@@H](CCCCN)C(N)=O)NC(=O)[C@H](CC(N)=O)NC(=O)[C@H](C(C)C)NC(=O)[C@H](Cc3ccccc3)NC2=O)cc1 [listing 2 of 2 here] | 0.022
3 | 19 | 6.8 | CCOc1ccc(C[C@H]2NC(=O)CC3(CCCCC3)SSC[C@@H](C(=O)NCCCCCN)NC(=O)[C@H](CC(N)=O)NC(=O)[C@H](C(C)C)NC(=O)[C@H](Cc3ccccc3)NC2=O)cc1 [listing 1 of 2 here] | 
4 |  |  | CCOc1ccc(C[C@H]2NC(=O)CC3(CCCCC3)SSC[C@@H](C(=O)NCCCCCN)NC(=O)[C@H](CC(N)=O)NC(=O)[C@H](C(C)C)NC(=O)[C@H](Cc3ccccc3)NC2=O)cc1 [listing 2 of 2 here] | 0.094
5 | 26 | 5.8 | CCOc1ccc(C[C@H]2NC(=O)CC3(CCCCC3)SSC[C@@H](C(=O)N[C@@H](CCCCN)C(N)=O)NC(=O)[C@H](CC(N)=O)NC(=O)[C@H](C(C)C)NC(=O)[C@H](Cc3ccccc3)NC2=O)cc1 [listing 1 of 2 here] | 
6 |  |  | CCOc1ccc(C[C@H]2NC(=O)CC3(CCCCC3)SSC[C@@H](C(=O)N[C@@H](CCCCN)C(N)=O)NC(=O)[C@H](CC(N)=O)NC(=O)[C@H](C(C)C)NC(=O)[C@H](Cc3ccccc3)NC2=O)cc1 [listing 2 of 2 here] | 0.059
7 | 30 | 7.2 | CCOc1ccc(C[C@H]2NC(=O)CC3(CCCCC3)SSC[C@@H](C(=O)N3CCC[C@H]3C(=O)NCCCCCN)NC(=O)[C@H](CC(N)=O)NC(=O)[C@H](C(C)C)NC(=O)[C@H](Cc3ccccc3)NC2=O)cc1 ([dY](Et)FVNCP-{NH(CH2)5NH2}; linker N-5 via X1) [listing 1 of 2 here] | 
8 |  |  | CCOc1ccc(C[C@H]2NC(=O)CC3(CCCCC3)SSC[C@@H](C(=O)N3CCC[C@H]3C(=O)NCCCCCN)NC(=O)[C@H](CC(N)=O)NC(=O)[C@H](C(C)C)NC(=O)[C@H](Cc3ccccc3)NC2=O)cc1 ([dY](Et)FVNCP-{NH(CH2)5NH2}; linker N-5 via X1) [listing 2 of 2 here] | 0.027
9 |  |  | CCOc1ccc(C[C@H]2NC(=O)CC3(CCCCC3)SSC[C@@H](C(=O)N3CCC[C@H]3C(=O)N[C@@H](CCCNC(=N)N)C(N)=O)NC(=O)[C@H](CC(N)=O)NC(=O)[C@H](C(C)C)NC(=O)[C@H](Cc3ccccc3)NC2=O)cc1 ([dY](Et)FVNCPR-NH2; linker N-5 via X1) | 0.0092
10 |  |  | CCOc1ccc(C[C@H]2NC(=O)CC3(CCCCC3)SSC[C@@H](C(=O)N3CCC[C@H]3C(=O)N[C@@H](CCCN=C(N)N)C(=O)NCC(N)=O)NC(=O)[C@H](CC(N)=O)NC(=O)[C@H](C(C)C)NC(=O)[C@H](Cc3ccccc3)NC2=O)cc1 ([dY](Et)FVNCPRG-NH2; linker N-5 via X1) | 0.0112
